Source: PubChem BioAssay (NCI)
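Grown in 96-well plates, cells were treated for 48 hours with each compound at five concentrations. Insufficient inhibition: endpoint recorded as highest concentration tested. GI50 marks 50% less growth. At the TGI there is no net growth.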

Each molecule was assayed on MDA-MB-468 breast (assay: NCI anticancer screen, dose series, 48 h).

Row | SMILES | GI50 [µM] | TGI [µM]
1 | COc1cc(C(=O)NC2CCc3cc(OC)c(OC)c(OC)c3-c3ccc(OC)c(=O)cc32)cc(OC)c1OC (configuration not stated) | 0.0853 | > 100
2 | C=C(c1ccc(OC)c(/C=C/C(=O)c2ccc3c(c2)OCO3)c1)c1cc(OC)c(OC)c(OC)c1 | 1.65 | 8.92
3 | COc1ccc2ncn(-c3cc(O[C@H](C)c4ccccc4C(F)(F)F)c(C(N)=O)s3)c2c1 | 0.067 | 1
4 | NS(=O)(=O)OC[C@H]1C[C@@H](Nc2ccnc3cc(-c4cccc(SC(F)(F)F)c4)nn23)[C@H](O)[C@@H]1O | < 0.01 | < 0.0127
5 | Cc1cccc2sc(/N=C(\N)C(Br)Br)nc12 | 1.63 | 4.58
6 | COc1cc2c(cc1OC(C)C)[C@H](c1ccc(Cl)cc1)N(c1ccc(N(C)CC3CCC(N4CCN(C)C(=O)C4)CC3)cc1)C(=O)C2 (some centres not stated) | 3.37 | 8.93
7 | COc1cc2c(c(OC)c1OC)-c1ccc(OC)c(=O)cc1C(NC(=O)COc1ccccc1)CC2 (configuration not stated) | < 0.01 | 59.4
8 | O=C(CSc1nc2c(n1Nc1ccccc1)-c1ccccc1SC2)Nc1nc(-c2ccc(Cl)cc2)cs1 | 18 | > 100
9 | O=C1N[C@@H]2[C@@H](O)[C@@H](O)[C@H](O)C[C@H]2c2cc3c(c(O)c21)OCCO3 | 0.0955 | 0.455
10 | Fc1ccc(-c2cc3nc(C(Cl)Cl)nc(-c4ccco4)n3n2)cc1 | 0.242 | 0.793
11 | O=C1Nc2c(ccc(Cl)c2Cl)/C1=C/c1cc(Br)c(O)c(Br)c1 | 2.96 | > 26.3
12 | COc1ccccc1Nc1cc(O)c2c(=O)cc(-c3ccccc3)oc2c1 | 1.5 | 6.42
13 | Cc1cc2c(C(=O)NC[C@H](C)c3ccccc3)c(O)c(O)cc2c(O)c1-c1c(C)cc2c(C(=O)NC[C@H](C)c3ccccc3)c(O)c(O)cc2c1O | 0.596 | 3.38
14 | CCOC(=O)C1=CCCC[C@H]1S(=O)(=O)Nc1ccc(F)cc1Cl | 10.8 | 42.4
15 | C[C@@H](Oc1cc(-n2cnc3ccc(OC4CCN(C)CC4)cc32)sc1C(N)=O)c1ccccc1Cl | 0.00441 | 0.202
16 | CC(=O)O[C@@H]1C2CCC3C(CC[C@@]4(C)C3CC[C@@H]4C(C)N(C)C)[C@@]2(C)CC[C@@H]1NC(=O)C=C(C)C (some centres not stated) | 1.4 | 3.06
17 | CNC(=O)c1ccc(N2C(=S)N(c3cnc(C#N)c(C(F)(F)F)c3)C(=O)C23CCC3)cc1F | 49.6 | > 100
18 | Oc1c(Cl)cc(Cl)c(Cl)c1CNCCNCc1c(O)c(Cl)cc(Cl)c1Cl | 0.917 | 5.85
19 | CC(C)(C)C(=O)OCOP(=O)(NCc1ccccc1)C1CCCN(O)C1=O (configuration not stated) | 1.43 | 5.07
20 | O=C(N/N=C/c1ccc([N+](=O)[O-])o1)c1[nH]c2ccc(Br)cc2c1-c1ccccc1 | 0.304 | 1.7
21 | CC[C@H](C)[C@H](NC(=O)[C@H]1CCCCN1C)C(=O)N(C)[C@H](C[C@@H](OC(C)=O)c1cccc(C(=O)N[C@@H](Cc2ccccc2)C[C@H](C)C(=O)OC)n1)C(C)C | 0.000917 | –
22 | COc1ccc(/C=C\c2cc(OC)c(OC)c(OC)c2)cc1OCC(=O)Nc1nc2ccc(F)cc2s1 | 3.68 | > 100

Row | SMILES | GI50 [µM] | TGI [µM]
23 | COc1ccc(C(=O)C(CN(C)C)CN(C)C)cc1 | 1.47 | 4.31
24 | Clc1c(Cl)[n+](Cc2ccc3ccccc3c2)cn1Cc1ccc2ccccc2c1 | 0.668 | 2.28
25 | COc1ccc(C2(Cl)c3ccccc3N(c3ccccc3)c3ccccc32)cc1 | 0.391 | 2.1
26 | C=CN(C(=O)N1CCN(c2cc3c(cc2F)c(=O)c(C(=O)O)cn3C2CC2)CC1)c1nc(-c2ccc(OC)cc2)cs1 | 3.07 | 28
27 | CCOC(=O)c1cc(C(=O)c2ccc(OC)cc2)n2ccc(/C=C/c3cc[n+](CC(=O)c4ccc(OC)cc4)cc3)cc12 | 1.71 | 3.63
28 | CCCCCCCCCCCCCCCC1=NCC[N+]1(CCO)CCO | 2.13 | 7.03
29 | CN[C@H]1CN(c2ccc3c(=O)c(C(=O)O)cn(-c4nccs4)c3n2)C[C@@H]1OC | 0.822 | 2.86
30 | COc1ccc(Cn2cc3c(c2-c2cc(OC)c(OC)c(OC)c2)CCCc2cnoc2-3)cc1 | 0.563 | > 100
31 | CNC(=O)c1c(C)oc2cc(Oc3ncnc4cc(OC)c(OC)cc34)ccc12 | > 100 | > 100
32 | Cc1cc2nc(NCCN)n(Cc3ccc(F)c(Cl)c3)c2cc1C | 3.61 | 15.8
33 | OC(CNc1ccnc2cc(Cl)ccc12)CNc1ccnc2cc(Cl)ccc12 | 1.43 | 2.93
34 | CCc1ccc(Oc2c(-c3ccc(OCc4ccc(Cl)cc4)cc3O)n[nH]c2C(F)(F)F)cc1 | 1.73 | 3.96
35 | Cc1ccc(O)c(NC(=O)c2cccc(Nc3ccnc(C(F)(F)F)c3)c2)c1 | 3.19 | 54.9
36 | O=c1c2ccccc2sc2c(NCCCNCCO)nc3ccccc3c12 | 1.52 | 3.12
37 | COc1cc(/C=C/c2cc(/C=C/c3ccc(O)c(OC)c3)n(C(=O)c3ccc(Cl)cc3)n2)ccc1O | 2.64 | 7.9
38 | Cc1c(C)n(CCCN2CCN(C)CC2)c2ccc(Oc3cccc(C(=O)N4CCN(CCc5ccc(F)cc5)CC4)c3)cc12 | 1.16 | 2.47
39 | Fc1ccc(-c2c(-c3ccncc3)nc3n2CCS3)cc1 | > 10.4 | > 25
40 | Cc1onc(-c2ccccc2)c1C(=O)N/N=C/c1cc(Cl)cc(Cl)c1O | 3.89 | 42.9
41 | CCOC(=O)c1c(NC(=O)c2ccc(C(F)(F)F)cc2)sc2c(CN3CCN(C)CC3)c(O)ccc12 | 1.78 | 3.93
42 | O=c1oc2ccc(I)cc2c(=O)n1-c1ccc(Br)cc1F | 1.45 | 4.88
43 | O=C1NC(=C(Cl)Cl)/C(=N/S(=O)(=O)N2CCCCC2)N1 | 2.39 | 13.3
44 | CC(C)C[C@H](NC(=O)CNC(=O)c1cc(Cl)ccc1Cl)B(O)O | < 0.0137 | 0.0217
